Test results from patent US20230391808A1, “PHOSPHAPHENALENE-GOLD(I) COMPLEXES AS CHEMOTHERAPEUTIC AGENTS AGAINST GLIOBLASTOMA” (priority 2020, published 2023).
Read-outs that look alike come from different tables or passages of the source.

Columns and labels:
thioredoxin reductase = thioredoxin reductase (Homo sapiens, UniProt Q16881); settings: Jortzik E. et al. 2014; cited from earlier work
[1] = target: human glutathione reductase (Homo sapiens, UniProt P00390); settings: Jortzik E. et al. 2014; cited from earlier work
Sequence of human glutathione reductase (P00390 44-522): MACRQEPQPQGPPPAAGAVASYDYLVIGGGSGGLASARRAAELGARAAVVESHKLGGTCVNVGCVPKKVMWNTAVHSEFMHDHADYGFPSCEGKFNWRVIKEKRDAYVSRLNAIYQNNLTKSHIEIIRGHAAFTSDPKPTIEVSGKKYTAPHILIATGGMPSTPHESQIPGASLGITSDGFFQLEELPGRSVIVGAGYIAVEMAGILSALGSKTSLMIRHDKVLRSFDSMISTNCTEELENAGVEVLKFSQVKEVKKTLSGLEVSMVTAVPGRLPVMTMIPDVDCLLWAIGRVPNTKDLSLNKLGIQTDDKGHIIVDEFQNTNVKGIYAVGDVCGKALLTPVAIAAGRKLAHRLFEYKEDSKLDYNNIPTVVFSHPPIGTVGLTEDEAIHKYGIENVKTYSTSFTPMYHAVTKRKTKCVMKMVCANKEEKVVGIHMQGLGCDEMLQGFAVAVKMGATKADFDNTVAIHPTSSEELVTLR

[2] = Stability in dimethylsulfoxide/H2O solutions; format: physicochemical; settings: over weeks
Solubility in solvents = format: physicochemical
Excerpt: Importantly, all compounds 1-4 readily dissolved in DMSO/H2O mixtures 1:9. Compound 1 was the least soluble and started to precipitate at concentrations higher than 0.1 M.

NCH89 [3] = assay: Annexin V apoptosis assay (flow cytometry), NCH89; format: cell-based, human
Procedure: (§1) It was further analyzed whether Compound 4 could sensitize GBM cells (NCH82 and NCH89) and GSCs (NCH421k, NCH644, and NCH660h) to apoptosis. The increase of apoptotic/necrotic cells with increasing concentrations of Compound 4 is illustrated in FIG. 3.
(§2) Thus, after a 48 hour-incubation period with different concentrations of Compound 4, the conventional GBM cells and GSCs were analyzed by flow cytometry. Annexin V and propidium iodide (PI) were used as indicators for apoptosis/necrosis. In line with the obtained IC50 values listed in Table 2, NCH82 cells appeared to be the most sensitive GBM cell line.
(§3) To quantitate the extent of apoptosis and necrosis, either annexin V staining combined with DAPI or double labeling of cells with annexin V and propidium iodide (PI) was used. The double labeling allows the distinction between apoptotic (annexin V^pos/DAPI^neg or annexin V^pos/PI^neg) and necrotic (annexin V^pos/DAPI^pos or annexin V^pos/PI^pos) cells. Cells were seeded in a 6-well plate (2.5×10^5/well) and left to attach overnight. Medium was replaced by fresh medium containing defined drug concentrations or compound solvent DMSO (untreated control) and incubated for 24 h. As positive control cells were treated with 1 μM of the apoptosis-inducing reagent staurosporin (#9953, Cell Signaling Technology, Danvas, USA). […]

[4] = system: GSCs (NCH421k, NCH644, and NCH660h); assay: Annexin V apoptosis assay (flow cytometry), GSCs; format: cell-based, human; settings: 48 hour-incubation (FIG. 3C)
Procedure: as §1, §2, §3

NCH82 [5] = assay: Annexin V apoptosis assay (flow cytometry), NCH82; format: cell-based, human; settings: drug concentration of 2 μM, 48 hour-incubation (FIG. 3B)
Procedure: as §2
To quantitate the extent of apoptosis and necrosis, either annexin V staining combined with DAPI or double labeling of cells with annexin V and propidium iodide (PI) was used. The double labeling allows the distinction between apoptotic (annexin V^pos/DAPI^neg or annexin V^pos/PI^neg) and necrotic (annexin V^pos/DAPI^pos or annexin V^pos/PI^pos) cells. […]
After treatment supernatant containing apoptotic and necrotic cells was collected, cells were harvested, washed, and up to 1×10^6 cells were incubated with FITC-conjugated annexin V antibody diluted in 1:1000 DAPI solution following manufactures instructions (#51-65874X, BD Bioscienes, Franklin Lakes, USA) or incubated with FITC-conjugated annexin V antibody and PI for 15 min following manufacturer instructions (#51-65974X, BD Biosciences, Franklin Lakes, USA). Cells were acquired by flow cytometry using a BD LSRII flow cytometer (BD Bioscienes, Franklin Lakes, USA) and analyzed by FlowJo Software v7.6.5 (TreeStar, Ahland, USA).

[6] = system: NCH82, NCH89, NCH125, and NCH210 cells; assay: Wound-healing (scratch) assay, tumor cell migration; format: cell-based, human
Procedure: Besides an increased tumor cell proliferation, a highly invasive cell growth drives malignancy of GBM. To obtain a more complete picture of the anti-cancer action of the compounds according to the invention, the effects of compound 4 on GBM cell invasion were investigated using a conventional wound-healing assay with NCH82, NCH89, NCH125, and NCH210 cells.
The results of the wound-healing assay are depicted in FIG. 2. […] The cells were imaged at 0 hours (t0) and at 24 hours (t1) after introducing the scrape. Cell migration was assessed by measuring cell-free areas at t0 and their reduction at t1.
To assess the effect of the drugs on cell migration in vitro cells were seeded in 6-well plates (5×10^5/Well) and left to attach. On the next day the cell monolayer was scraped in a straight line to create a “scratch” with a p200 pipet tip. […] Phase contrast images were acquired at 0 h and after 12 h of exposure to the respective drug concentration using a BX50 microscope with a SC30 camera (both Olympus, Tokyo, Japan). The cell-free areas at both time points were quantified and compared using the imaging software cellSens (Olympus, Tokyo, Japan).

NCH149 = assay: Crystal violet proliferation assay, NCH149; format: cell-based, human; settings: glioblastoma cell line, 48 h exposure, mean of three biological replicates ± standard deviation
Procedure: In order to investigate the role of the fused phosphaphenalene ring in the bio-activity of the drug, the ability of Compound 5 to inhibit cell proliferation in the glioblastoma cell lines NCH82, NCH89 and NCH149 was examined. For this purpose, cells were incubated with increasing concentrations of Compound 5 and cell proliferation was evaluated by crystal violet assay.
The effect of different compounds on cell growth was evaluated by the crystal violet method as described earlier (J. P. Rigalli et al., Cancer Lett. 2016, 376, 165-172). Briefly, cells were seeded in 96-well plates (10,000 cells/well). After 24 h cell culture medium was replaced by fresh compound-containing medium (ten different concentrations (0.01 to 200 μM μM)). After 48 h of exposure extent of cell proliferation inhibition was determined by crystal violet staining of surviving cells. Therefore, cells were washed and stained with 0.5% crystal violet solution (2.5 g in 100 ml methanol, diluted with 400 ml aqua bidest) for 15 min, rinsed and dried overnight.
Next, crystal violet was solubilized in methanol and absorbance was measured at 555 nm. The proliferative index was calculated as crystal violet absorption intensity as percentage relative to baseline (no cells) as described before (T. Peters et al., Naunyn Schmiedebergs Arch Pharmacol. 2006, 372, 291-299.) Cell survival plotted against the decimal logarithm of drug concentration in μM (c (of compound x) in μM) and fitted to a sigmoidal dose-response curve using Graph Pad Prism 7.02 (GraphPad Software, San Diego, USA).

NCH82 [7] = assay: Crystal violet proliferation assay, NCH82; format: cell-based, human; settings: glioblastoma cell line, 48 h exposure, mean of three biological replicates ± standard deviation
NCH89 [8] = assay: Crystal violet proliferation assay, NCH89; format: cell-based, human; settings: glioblastoma cell line, 48 h exposure, mean of three biological replicates ± standard deviation
[9] = Stability under controlled thermodynamic conditions upon repetitive cycles of illumination; format: physicochemical; settings: data not shown
NCH82 [10] = settings: Deponte M. et al. 2005; read-out: IC50, proliferation of NCH82; cited from earlier work
NCH89 [11] = settings: Deponte M. et al. 2005; read-out: IC50, proliferation of NCH89; cited from earlier work

Sequence of thioredoxin reductase (Q16881 151-649 limits assumed): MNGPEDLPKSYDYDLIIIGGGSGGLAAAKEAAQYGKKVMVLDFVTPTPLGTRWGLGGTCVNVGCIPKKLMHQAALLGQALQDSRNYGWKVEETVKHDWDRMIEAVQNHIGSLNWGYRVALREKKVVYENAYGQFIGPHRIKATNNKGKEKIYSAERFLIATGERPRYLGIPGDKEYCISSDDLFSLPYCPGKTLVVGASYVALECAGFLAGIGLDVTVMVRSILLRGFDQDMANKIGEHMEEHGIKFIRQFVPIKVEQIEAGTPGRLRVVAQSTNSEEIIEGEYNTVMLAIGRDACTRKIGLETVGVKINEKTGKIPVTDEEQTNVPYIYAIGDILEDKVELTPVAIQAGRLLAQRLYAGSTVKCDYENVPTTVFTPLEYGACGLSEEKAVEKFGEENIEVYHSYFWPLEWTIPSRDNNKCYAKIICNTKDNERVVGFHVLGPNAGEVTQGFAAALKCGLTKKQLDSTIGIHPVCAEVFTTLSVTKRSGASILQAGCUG

**Q.** With “1-phenyl-bis(2-pyridyl)phosphole gold chloride thio-β-d-glucose tetraacetate [GoPI-sugar]” as the compound, how does the IC50 (thioredoxin reductase) read?
**A.** The IC50 was 0.0043 µM.

**Q.** What about the IC50 [1] of the same compound?
**A.** The IC50 was 0.0885 µM.

**Q.** For `[Cl][Au][PH]1(c2ccccc2)c2cscc2-c2cccc3cccc1c23` [Compound 1], which “stability in dimethylsulfoxide/H2O solutions” value [2] is on record?
**A.** Its value is “high stability”.

**Q.** And the “concentration above which precipitation starts” value (Solubility in solvents; DMSO/H2O mixtures 1:9)?
**A.** Its value is “higher than 0.1 M”.

**Q.** With `CC(=O)OCC1OC([S][Au][PH]2(c3ccccc3)c3cscc3-c3cccc4cccc2c34)C(OC(C)=O)C(OC(C)=O)C1OC(C)=O` (stereo not drawn) [Compound 4] as the compound, how does the “apoptotic/necrotic cells, NCH89” value (NCH89 [3]; 1 μM, 2 μM, and 10 μM for 24 hours (FIG. 3A)) read?
**A.** Its value is “dose-dependent increase of apoptotic/necrotic cells”.

**Q.** What about the “cell death, NCH89” value (NCH89 [3]; concentration of 2 μM, 48 hour-incubation (FIG. 3B)) of the same compound?
**A.** The value was “no cell death”.

**Q.** What about the “induction of apoptosis, GSCs” value [4] of the same compound?
**A.** The value was “induction of apoptosis could be demonstrated but to a lesser extent”.

**Q.** What about the “induction of apoptosis, NCH82” value (NCH82 [5]) of the same compound?
**A.** The value was “induced apoptosis in a high percentage of cells”.

**Q.** And the “solubility in methanol, ethanol, DCM, CHCl3, Et2O and acetone” value (Solubility in solvents)?
**A.** The value was “soluble”.

**Q.** And the “solubility in pentane and hexane” value (Solubility in solvents)?
**A.** The value was “insoluble”.

**Q.** What about the “wound closure compared to untreated control cells” value ([6]; at least the corresponding IC50 concentrations, 24 hours) of the same compound?
**A.** Its value is “significantly decreased wound closure”.

**Q.** What about the wound closure ([6]; concentrations c(IC50)/2 and c(IC50)/10, 24 hours) of the same compound?
**A.** The wound closure was “not significantly affected”.

**Q.** For `Cn1ccc2c1-c1cccc3cccc(c13)[P+]2([Au-][Cl])c1ccccc1` (stereo not drawn) [Compound 5], which IC50 (NCH149) is on record?
**A.** The IC50 was 8.87 µM.

**Q.** And the IC50 (NCH82 [7])?
**A.** The IC50 was 8.1 µM.

**Q.** And the IC50 (NCH89 [8])?
**A.** Its IC50 is 15.1 µM.

**Q.** For `CC(=O)OC[C@H]1O[C@@H]([S][Au-][P+]2(c3ccccc3)c3ccn(S(=O)(=O)c4ccccc4)c3-c3cccc4cccc2c34)[C@H](OC(C)=O)[C@@H](OC(C)=O)[C@@H]1OC(C)=O` (stereo partly drawn) [Compound 8], which IC50 (NCH149) is on record?
**A.** The IC50 was 2.85 µM.

**Q.** And the IC50 (NCH82 [7])?
**A.** Its IC50 is 1.37 µM.

**Q.** And the IC50 (NCH89 [8])?
**A.** The IC50 was 4.49 µM.

**Q.** And the “stability upon repetitive cycles of illumination” value [9]?
**A.** The value was “very high stability”.

**Q.** Which IC50 (NCH82 [10]) does the source give for `[Cl][Au][PH]1(c2ccccc2)C(c2ccccn2)=CC=C1c1ccccn1` [GoPI, [1-phenyl-2,5-di(2-pyridyl)phosphole]AuCl] here?
**A.** Its IC50 is 12.5 ± 0.8 µM.

**Q.** And the IC50 (NCH89 [11])?
**A.** The IC50 was 10.8 ± 0.8 µM.
